This is an account of results in patent publication US5389621A, “Method of enhancing the anticoagulant effects of aspirin using salicylamide” (University of Medicine and Dentistry of New Jersey, priority 1994, dated 1995).

“Also recorded” adds a separate entry of the source. Like-named read-outs stand apart in the source and are kept apart here.

A short description of data set [1]: Plasma kinetics of total 14C after oral 14C-aspirin alone or with salicylamide. The class given is in vivo, male Sprague-Dawley rats. As to conditions: for Effect on AUC.infin. of 14C / Effect on total body clearance (ClT) of 14C: after 14C-ASA; for AUC.infin. of 14C: mean ± SE, n=6. The method, then:
Male adult Sprague-Dawley rats (300-325 gm) obtained from Charles River Breeding Laboratory, N. Wilmington, Mass. were quarantined for one week. All animals were identified by ear punching. Food and water were provided ad libitum. The animals were maintained on rodent lab chow diet in a controlled environment with 50% humidity and 12 hour light/dark cycle.
Two dose combinations were employed. The low dose was 10 and/or 3 mg/kg of ASA and/or SAM, respectively, while the high dose was double the low dose. These doses were approximately equal (w/w) to that in commercially available combinations, e.g., BC® formula, when administered to humans.
Rats were divided into 2 groups; the first group consisted of 30 rats which were assigned to 5 subgroups, 6 rats each, according to the following treatment scheme:
The second group consisted of 4 subgroups and were administered double the dose received by the first group (with the exception of subgroup III).
The rats were fasted overnight (~18 hr.) before administration of the treatments and were allowed water ad libitum. The drug(s) to be given were prepared fresh in the morning of the study, dissolved in 2.5 ml of deionized water and gavaged to rats.
The specific activity of ASA was 739 and 369 dpm/μg for the low and high dose treatments, respectively.
The samples were collected by heparinized plastic syringes and transferred to polyethylene test tubes. The samples, ~300 μl each, were rapidly centrifuged at 1800×g for 15 minutes at 4° C.
The terminal elimination rate constant (ke) was estimated by linear regression of the terminal β phase of the plasma concentration vs. time curves. The area under the curve (AUC.infin.) was calculated by using the trapezoidal method from zero to the last measured plasma concentration. The half-life of elimination (t1/2β) was obtained by the equation t1/2β =0.693/ke.
Total body clearance (ClT) was estimated by the equation ClT =Dose/AUC assuming a complete absorption of ASA and SAM (Iwamoto et al., 1982; Iwamoto et al., 1983). The apparent volume of distribution Vd was calculated from the formula, Vd =ClT /ke.

The conditions of data set [2]: cited from earlier work.
Data set [3] can be described thus: Acid-hydrolyzed fraction of SA in liver, kidney and plasma after 14C-aspirin. As to conditions: low or high dose combinations. The method, then:
Forty-eight rats were divided into two groups. The first group of rats was administered ASA, SAM or their combination in a dose approximately equal (w/w) to that in the commercially available combinations, e.g., BC® formula, when administered to humans, i.e., 10 and 3 mg/kg of ASA and SAM, respectively. The second group was administered double the dosage received by the first group.
For each sample to be analyzed, 2 aliquots each of 300 mg of tissue (liver or kidney) or 100 μl of plasma, were placed in polyethylene wide-pore tubes (Fisherbrand) along with 0.5 ml of physiological saline. The tissues were homogenized using an electrical homogenizer (Polytron, Brinkmann Instruments, Westbury, N.Y.) on high speed for 2 minutes for each sample. The tubes were dipped in ice during this procedure to minimize any loss of SA by sublimation from the heat generated by the high speed of the homogenization.
The homogenates were transferred by pipette to pyrex screw-top test tubes and the tubes were then divided into 2 groups: […]
The supernatants were filtered through disposable 0.45 μm Acrodisc filters and 100 μl were injected onto HPLC. […] The radioactivity in the vials was measured by Beckman LS scintillation counter and the difference in radioactivity between the control vials and the acidhydrolyzed ones was indicative of SA conjugates as well as part of the protein-bound SA in the tissue samples. […]

Another data set deals with cyclooxygenase. As to conditions: in vitro, cited from earlier work.
Data set [4] concerns lyso-PAF:acetyl-CoA acetyltransferase. As to conditions: cited from earlier work.
Another data set relates to lipooxygenase pathway. Particulars: cited from earlier work.
The conditions of data set [5]: oral, rats; cited from earlier work.
[6] abbreviates: oral 14C-ASA 10 mg/kg, alone or with SAM 3 mg/kg.
[7] abbreviates: oral 14C-ASA 20 mg/kg, alone or with SAM 6 mg/kg.

Regarding `CC(=O)Oc1ccccc1[14C](=O)O` [^14 C-ASA], in data set [1], the “Effect on AUC.infin. of 14C” value is listed as “showed a dose dependent increase” and the “Effect on total body clearance (ClT) of 14C” value was “decreased dose-dependently”. For the same compound, in data set [1] (high dose, 14C-ASA alone or with SAM), the “T1/2β of 14C” value was found to be 5.1 h. In data set [1] (low dose of 14C-ASA alone or in combination with SAM, from 6-24 hour plasma concentrations, 10 mg/kg), the “Elimination half-life of 14C” value was in the range of 2.8 to 3.2 h. Besides, in data set [1] (setting [6]), the “AUC4hr of 14C (first 4 hr)” value was 99.6 ± 10.6 µg·h/mL, the “C1T total body clearance of 14C” value came out at 10.3 ± 1.1 mL/h, the “Cmax of 14C” value was determined as 29900 ± 2300 ng/mL and the “T1/2abs absorption half-life of 14C” value worked out at 9.1 ± 1.1 min. Further, in data set [1] (setting [6]), the “T1/2β elimination half-life of 14C” value was 3.2 ± 0.2 h, the “Vd apparent volume of distribution of 14C” value is 46.1 ± 2.4 mL and the “AUC.infin. of 14C” value was 345.7 ± 38.3 µg·h/mL. In data set [1] (setting [7]), the “AUC4hr of 14C (first 4 hr)” value came to 222.2 ± 15.3 µg·h/mL, the “C1T total body clearance of 14C” value turned out to be 7.7 ± 0.8 mL/h, the “Cmax of 14C” value was found to be 65100 ± 8200 ng/mL and the “T1/2abs absorption half-life of 14C” value is 8.9 ± 0.9 min. Moreover, in data set [1] (setting [7]), the “Vd apparent volume of distribution of 14C” value is 85.5 ± 28.1 mL and the “AUC.infin. of 14C” value was 810.6 ± 81.7 µg·h/mL.

On to `NC(=O)c1ccccc1O` [SAM, Salicylamide], for which, in data set [2] (in vivo), the Biliary excretion entry is on record as “negligible”, the “Bound to plasma proteins” value was “About 50%” and the “Hydrolysis in vivo to a salicylate” value is “not hydrolyzed in vivo to form a salicylate”. Besides, the “First-pass metabolism of the administered dose” value in data set [2] (oral) was “up to 70%”. The “Change of acid-hydrolyzed SA fraction in liver” value in data set [3] is listed as “did not affect”. Besides, in data set [1], the “Effect on AUC.infin. of 14C” value is on record as “further increased, albeit not significantly” and the “Effect on total body clearance (ClT) of 14C” value was “tended to decrease the ClT after the high dose combination”. Further, the “Duration of the SAM effect on plasma 14C” value in data set [1] (following coadministration with 14C-ASA) is “approximately 4 hours”. For the same compound, the “Increase of Cmax of total 14C by SAM” value in data set [1] (high dose 14C-ASA coadministration) was roughly 25%. The “Effect of SAM on 14C-ASA absorption half-life” value in data set [1] (rat, in vivo) was “no effect”. In addition, the “Effect of SAM coadministration on Cmax / plasma level of total 14C” value in data set [1] (with 14C-ASA) is “enhanced maximum plasma concentration (Cmax) of total ^14 C dose-dependently; also recorded: dose-dependently increases the plasma level of total ^14 C radioactivity”. Also, in the data set with cyclooxygenase, the Effect on cyclooxygenase result was “no effect in vitro on cyclooxygenase”. For the same compound, the Effect on cyclooxygenase entry in the data set with cyclooxygenase (listed as salicylamide) is “does not have a demonstrable effect on the cyclooxygenase pathway in vitro”.

As to `CC(=O)Oc1ccccc1C(=O)O` [ASA, acetylsalicylic acid], in data set [4], the “Effect on lyso-PAF:acetyl-CoA acetyltransferase” value is listed as “inhibitory effect”. For the same compound, the “Effect on the lipooxygenase pathway” value with lipooxygenase pathway is reported as “reversibly block the lipooxygenase pathway”. For the same compound, the “Intestinal and hepatic extraction and/or metabolism of oral dose” value in data set [5] was “More than 60%”.
